Measured values taken from publication PMC11513923, “Discovery of ZLC491 as a Potent, Selective, and Orally Bioavailable CDK12/13 PROTAC Degrader” (Journal of Medicinal Chemistry, 2024).
Where a SMILES comes first, the peptide text is derived from it. The star is where a group is joined. Cbz = O=C(OCc1ccccc1)*

Experiments:
CDK13 = biological target: T1, CDK13 (Homo sapiens, UniProt Q14004); assay: CDK13 degradation in MDA-MB-231 cells by immunoblotting; assay type: cell-based; details: 0.3 μM; for Protein Degradation (%DMSO control, 0.3 μM) CDK13: MDA-MB-231 cells, 15 h, immunoblotting, normalized against α-tubulin; for Degradation rates of CDK13 at 0.3 μM: supplementary CSV;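 for Protein Degradation (%DMSO control, 0.3 μM) CDK13: percent of CDK13 protein degraded relative to DMSO control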
T1 construct: Immunoblotting of CDK12 and CDK13 in MDA-MB-231 cells treated with increasing concentrations of ZLC491 for 15 h; endogenous in cells; host or cells: MDA-MB-231
T1 sequence (Q14004 whole entry): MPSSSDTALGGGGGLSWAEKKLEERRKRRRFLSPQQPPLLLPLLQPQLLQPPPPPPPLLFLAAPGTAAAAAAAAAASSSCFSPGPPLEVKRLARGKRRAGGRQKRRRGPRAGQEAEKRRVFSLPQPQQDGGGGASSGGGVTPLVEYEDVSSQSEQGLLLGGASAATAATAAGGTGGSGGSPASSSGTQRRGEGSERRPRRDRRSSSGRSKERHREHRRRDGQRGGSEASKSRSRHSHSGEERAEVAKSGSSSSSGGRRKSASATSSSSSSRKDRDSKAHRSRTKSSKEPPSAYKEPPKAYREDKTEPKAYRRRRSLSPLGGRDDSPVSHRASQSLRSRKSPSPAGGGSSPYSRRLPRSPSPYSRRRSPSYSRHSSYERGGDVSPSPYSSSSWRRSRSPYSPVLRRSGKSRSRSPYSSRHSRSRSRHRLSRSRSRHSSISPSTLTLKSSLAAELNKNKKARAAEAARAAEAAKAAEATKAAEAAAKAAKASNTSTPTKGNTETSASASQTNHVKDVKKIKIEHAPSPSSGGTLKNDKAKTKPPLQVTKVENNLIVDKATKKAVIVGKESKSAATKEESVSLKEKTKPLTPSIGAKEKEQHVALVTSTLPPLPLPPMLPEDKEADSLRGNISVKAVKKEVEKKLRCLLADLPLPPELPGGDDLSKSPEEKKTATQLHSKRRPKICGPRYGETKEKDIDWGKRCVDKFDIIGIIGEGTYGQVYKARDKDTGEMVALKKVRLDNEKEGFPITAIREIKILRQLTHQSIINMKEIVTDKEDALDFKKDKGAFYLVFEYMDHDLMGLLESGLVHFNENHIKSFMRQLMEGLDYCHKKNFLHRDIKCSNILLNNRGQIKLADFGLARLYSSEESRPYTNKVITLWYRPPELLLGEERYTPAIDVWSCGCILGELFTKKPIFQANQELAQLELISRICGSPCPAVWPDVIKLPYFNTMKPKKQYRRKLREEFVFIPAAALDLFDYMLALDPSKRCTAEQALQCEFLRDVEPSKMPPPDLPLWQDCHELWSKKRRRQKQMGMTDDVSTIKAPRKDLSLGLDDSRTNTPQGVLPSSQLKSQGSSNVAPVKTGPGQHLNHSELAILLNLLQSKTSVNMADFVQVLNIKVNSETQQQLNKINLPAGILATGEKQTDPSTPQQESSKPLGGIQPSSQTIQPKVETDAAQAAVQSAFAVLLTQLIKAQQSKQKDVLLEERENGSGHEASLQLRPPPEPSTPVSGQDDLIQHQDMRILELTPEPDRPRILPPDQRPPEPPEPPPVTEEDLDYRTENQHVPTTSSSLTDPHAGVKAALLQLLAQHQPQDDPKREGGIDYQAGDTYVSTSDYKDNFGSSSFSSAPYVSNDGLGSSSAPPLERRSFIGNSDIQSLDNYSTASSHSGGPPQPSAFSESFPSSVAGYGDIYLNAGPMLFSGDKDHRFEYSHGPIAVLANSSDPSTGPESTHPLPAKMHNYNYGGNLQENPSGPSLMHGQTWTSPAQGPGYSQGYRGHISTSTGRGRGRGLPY
T1 sequence (O75909 whole entry partner): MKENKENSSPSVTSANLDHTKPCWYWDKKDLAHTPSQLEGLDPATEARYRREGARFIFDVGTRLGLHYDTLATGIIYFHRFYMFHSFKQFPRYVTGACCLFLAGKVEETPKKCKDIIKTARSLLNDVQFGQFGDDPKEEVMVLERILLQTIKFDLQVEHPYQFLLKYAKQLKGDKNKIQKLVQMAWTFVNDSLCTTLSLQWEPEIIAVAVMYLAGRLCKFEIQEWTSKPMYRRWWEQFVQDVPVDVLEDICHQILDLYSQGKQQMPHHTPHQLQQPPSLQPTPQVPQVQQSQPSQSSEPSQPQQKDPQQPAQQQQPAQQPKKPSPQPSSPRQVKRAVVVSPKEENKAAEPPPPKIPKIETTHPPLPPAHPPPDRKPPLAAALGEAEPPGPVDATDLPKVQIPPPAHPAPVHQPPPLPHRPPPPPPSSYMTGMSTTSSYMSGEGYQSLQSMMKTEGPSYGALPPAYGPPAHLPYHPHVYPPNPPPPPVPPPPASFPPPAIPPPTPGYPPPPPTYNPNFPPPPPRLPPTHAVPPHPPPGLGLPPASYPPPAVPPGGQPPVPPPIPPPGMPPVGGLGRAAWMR
Procedure: (§1) The degradation efficiency of the new molecules was assessed by immunoblotting after treatment with the compounds at 0.3 μM in MD-MBA-231 cells for 15 h.
(§2) To further characterize the compound, we determined the half-degradation concentration (DC50) values of ZLC491 in MDA-MB-231 cells. […] We also treated MDA-MB-231 cells with 1 μM ZLC491 at various time points.
(§3) (A) Immunoblotting of CDK12 and CDK13 in MDA-MB-231 cells treated with increasing concentrations of ZLC491 for 15 h (left). Percent remaining CDK12 and CDK13 proteins were plotted for DC50 determination (right). Protein levels were quantified using ImageJ and normalized to corresponding α-tubulin, then plotted using Graphpad Prism 8.0. The data were representative of three independent experiments; (B) immunoblotting of CDK12 and CDK13 proteins in MDA-MB-231 cells treated with ZLC491 for various time points; immunoblotting of CDK12 and CDK13 in HCC38 (C) and MDA-MB-436 (D) cells treated with increasing concentrations of ZLC491 for 15 h. α-Tubulin was used as a loading control. TEXT PRINTED IN THE PICTURE: (A) ZLC491: MDA-MB-231: CDK12 DC50 = 0.032μM; MDA-MB-231: CDK13 DC50 = 0.028μM DOUBTS OF THE COPYIST ABOUT THIS PICTURE: ZLC491, CDK12 DC50: 0.032 read from small print, the digits 3 and 2 are uncertain / ZLC491, CDK13 DC50: 0.028 read from small print, the last digit may be 8, 6 or 3
(§4) Generally, the tested cells were washed by ice-cold PBS buffer (Gibco) and lysed with an SDS lysis buffer (62.5 mM Tris, 2% w/v SDS, 10 glycerol, 50 mM DTT, 0.01% w/v bromophenol blue) on ice, after which the protein lysate samples were collected to 1.5 mL microcentrifuge tubes and treated with ultrasonic for 10 s, following with a 100 °C incubation for 10 min and a 4 °C centrifugation of 12000 rpm for 10 min. An equal amount of protein was loaded to 4–8% Bis-Tris gels and underwent an SDS-PAGE electrophoresis at 55V for 30 min and 95V for 90 min. Proteins on gels were then transferred to a polyvinylidene difluoride (PVDF) membrane (Bio-Rad) with a wet electro transfer system (Bio-Rad). The PVDF membrane was cut into bands and incubated in a blocking reagent (5% defatted milk powder dissolved in TBST) at room temperature for 1–2 h. Incubate membrane and primary antibody (at the appropriate dilution and diluent as recommended in the product webpage) at 4 °C for 12–14 h, followed with three times washes by TBST. The washed membranes were incubated in a secondary antibody solution (HRP-linked antirabbit IgG or antimouse IgG (CST), 1:2000 diluted into TBST) at room temperature for 2 h. Membranes were photographed in Amersham Imager 800 system using StarSignal plus regent (GenStar) or Omni-ECL reagent (EpiZyme). Compounds MG132, MLN4924, Bafilomycin A1 and pomalidomide were purchased from MedChemExpress (MCE) LLC.

CDK12 = CDK12 (Homo sapiens, UniProt Q9NYV4); assay: CDK12 degradation in MDA-MB-231 cells by immunoblotting; assay type: cell-based; design: Immunoblotting of CDK12 and CDK13 in MDA-MB-231 cells treated with increasing concentrations of ZLC491 for 15 h; endogenous in cells; host or cells: MDA-MB-231; details: 0.3 μM; for Protein Degradation (%DMSO control, 0.3 μM) CDK12: MDA-MB-231 cells, 15 h, immunoblotting, normalized against α-tubulin; for Degradation rates of CDK12 at 0.3 μM: supplementary CSV
CDK12, sequence (Q9NYV4 whole entry): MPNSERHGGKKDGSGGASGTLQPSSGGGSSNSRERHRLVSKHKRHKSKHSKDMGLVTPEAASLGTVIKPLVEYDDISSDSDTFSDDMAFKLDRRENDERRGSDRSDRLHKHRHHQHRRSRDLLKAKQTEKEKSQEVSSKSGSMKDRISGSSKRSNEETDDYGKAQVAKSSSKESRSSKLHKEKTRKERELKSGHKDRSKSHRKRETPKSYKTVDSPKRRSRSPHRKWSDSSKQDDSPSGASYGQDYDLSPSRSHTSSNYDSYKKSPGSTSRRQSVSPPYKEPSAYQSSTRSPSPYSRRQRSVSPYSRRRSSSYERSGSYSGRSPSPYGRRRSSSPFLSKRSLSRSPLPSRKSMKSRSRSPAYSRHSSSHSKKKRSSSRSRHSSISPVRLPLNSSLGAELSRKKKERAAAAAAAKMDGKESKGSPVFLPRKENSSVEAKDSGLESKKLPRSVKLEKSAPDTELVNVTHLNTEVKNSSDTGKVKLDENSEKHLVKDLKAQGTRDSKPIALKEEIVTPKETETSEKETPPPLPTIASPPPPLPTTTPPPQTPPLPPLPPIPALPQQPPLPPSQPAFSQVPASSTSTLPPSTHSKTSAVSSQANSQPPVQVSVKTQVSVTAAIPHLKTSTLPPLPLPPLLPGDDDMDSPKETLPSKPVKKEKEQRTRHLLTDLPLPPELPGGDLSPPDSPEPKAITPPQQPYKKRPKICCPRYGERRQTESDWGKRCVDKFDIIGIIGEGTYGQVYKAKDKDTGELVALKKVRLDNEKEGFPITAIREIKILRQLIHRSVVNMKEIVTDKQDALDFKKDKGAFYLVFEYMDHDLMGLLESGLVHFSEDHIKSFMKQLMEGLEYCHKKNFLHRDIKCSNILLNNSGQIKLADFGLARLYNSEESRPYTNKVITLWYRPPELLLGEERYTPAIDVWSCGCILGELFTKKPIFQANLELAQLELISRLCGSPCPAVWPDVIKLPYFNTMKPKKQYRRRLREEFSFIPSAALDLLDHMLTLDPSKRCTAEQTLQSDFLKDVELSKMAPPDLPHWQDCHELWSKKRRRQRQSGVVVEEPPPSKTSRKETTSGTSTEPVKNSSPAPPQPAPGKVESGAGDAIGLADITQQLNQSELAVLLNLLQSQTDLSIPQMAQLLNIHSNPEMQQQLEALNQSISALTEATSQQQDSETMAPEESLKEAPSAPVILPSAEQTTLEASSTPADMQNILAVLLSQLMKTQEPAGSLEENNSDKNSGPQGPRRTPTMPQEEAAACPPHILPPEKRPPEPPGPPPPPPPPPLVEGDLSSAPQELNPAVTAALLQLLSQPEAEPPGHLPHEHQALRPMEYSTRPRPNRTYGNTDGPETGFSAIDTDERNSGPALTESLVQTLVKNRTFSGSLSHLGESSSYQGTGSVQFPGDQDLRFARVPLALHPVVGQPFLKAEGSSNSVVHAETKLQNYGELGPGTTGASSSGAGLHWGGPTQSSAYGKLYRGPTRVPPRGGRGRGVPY
CDK12, sequence (O75909 whole entry partner): as the sequence (O75909 whole entry partner) above
Procedure: as §1, §2, §3, §4

Pharmacokinetics in rats = assay type: in vivo, rat
Procedure: We further evaluated the in vivo PK properties of compound ZLC491 and the counterpart 4m (without F substitution) in rats, and the results were summarized in Table 2. […] The PK profiles of F-containing compound ZLC491 were further improved.
The pharmacokinetic investigation was taken by Shanghai Medicilon Inc. (Project Code: 26048-23001-NG). Sprague–Dawley male rats (Specific pathogen Free (SPF), provided by Zhejiang Vital River Laboratory Animal Technology Co. Ltd.) were dosed with ZLC491 solution formulation (5% DMSO, 10% Solutol, 85% normal saline, 2.5 mg/kg for intravenous dose, 10 mg/kg for oral dose) or compound 4m solution formulation (5% DMSO, 10% Solutol, 85% (20%HP-β-CD), 2.5 mg/kg for intravenous dose, 10 mg/kg for oral dose). Blood samples were collected at 0.083, 0.25, 0.5, 1, 2, 4, 8, and 24 h in intravenous administration, 0.25, 0.5, 1, 2, 4, 6, 8, and 24 h in oral administration. The blood samples were collected from sets of three rats at each time point in labeled microcentrifuge tubes containing heparin sodium as an anticoagulant. Plasma samples were separated by centrifugation (2–8 °C, 6800g for 6 min) within 1 h and stored below −80 °C until bioanalysis. All samples were processed for analysis by precipitation using acetonitrile and analyzed with a partially validated LC/MS/MS method. Pharmacokinetic parameters were calculated using the noncompartmental analysis tool of WinNonlin Enterprise software.

CDK12/13 = assay: Mechanism study: pretreatment before ZLC491, immunoblotting of CDK12/13 in MDA-MB-231 cells; assay type: cell-based, human; details: 2 h pretreatment (1 μM MG132, 0.1 μM MLN4924, 0.1 μM bafilomycin, 5 μM pomalidomide, 8 μM compound 5), then 1 μM ZLC491 10 h
Procedure: We further investigated the mechanism of action of ZLC491-mediated CDK12/13 degradation. […] Additionally, pretreatment with CRBN ligand pomalidomide or the warhead compound 5 also reversed the ZLC491-mediated CDK12/13 degradation in MDA-MB-231 cells (Figure 4D,E).
Figure 4 ZLC491 induced CDK12/13 degradation in a CRBN- and proteasome-dependent fashion. Immunoblotting of CDK12 and CDK13 in MDA-MB-231 cells treated with 1 μM ZLC491 for 10 h with or without pretreatment with 1 μM MG132 (A), 0.1 μM MLN4924 (B), 0.1 μM bafilomycin (C), 5 μM pomalidomide (D) and 8 μM compound 5 (E) for 2 h; (F) immunoblotting of CDK12 and CDK13 in MDA-MB-231 cells treated with 1 μM ZLC491N for 10 h. α-Tubulin was used as a loading control.
as §4

[1] = male, Sprague-Dawley, rat, plasma, oral bioavailability, p.o. 10 mg/kg vs i.v. 2.5 mg/kg

Row | Protein Degradation (%DMSO control, 0.3 μM) CDK13 (CDK13) [%] | Degradation rates of CDK13 at 0.3 μM (CDK13) [%] | Protein Degradation (%DMSO control, 0.3 μM) CDK12 (CDK12) [%] | Degradation rates of CDK12 at 0.3 μM (CDK12) [%] | CL (Pharmacokinetics in rats; i.v. 2.5 mg/kg) [mL/min/kg] | bioavailability (Pharmacokinetics in rats; [1]) [%] | bioavailability at 24 h (Pharmacokinetics in rats; [1]) [%] | Structure (SMILES) | effect of pretreatment on ZLC491-induced CDK12/13 degradation (CDK12/13)
1 | 40 | 40 | 17 | 17 |  |  |  | N#Cc1ccc(N[C@H]2CC[C@H](N(C(=O)NCc3ccccc3)c3ccc(N4CCN(C5CCN(c6ccc7c(c6)C(=O)N(C6CCC(=O)NC6=O)C7=O)C5)CC4)cc3)CC2)nc1 (stereo partly drawn) [4l, 3-Benzyl-1-((1r,4r)-4-((5-cyanopyridin-2-yl)amino)cyclohexyl)-1-(4-(4-(1-(2-(2,6-dioxopiperidin-3-yl)-1,3-dioxoisoindolin-5-yl)pyrrolidin-3-yl)piperazin-1-yl)phenyl)urea] | 
2 | 85 | 85 | 70 | 70 | 9.85 | 16 | 16.5 | N#Cc1ccc(N[C@H]2CC[C@H](N(C(=O)NCc3ccccc3)c3ccc(N4CCN(C5CCN(c6ccc7c(c6)C(=O)N(C6CCC(=O)NC6=O)C7=O)CC5)CC4)cc3)CC2)nc1 (stereo partly drawn) [4m, 3-Benzyl-1-((1r,4r)-4-((5-cyanopyridin-2-yl)amino)cyclohexyl)-1-(4-(4-(1-(2-(2,6-dioxopiperidin-3-yl)-1,3-dioxoisoindolin-5-yl)piperidin-4-yl)piperazin-1-yl)phenyl)urea] | 
3 | 85 | 85 | 63 | 63 |  |  |  | N#Cc1ccc(N[C@H]2CC[C@H](N(C(=O)NCc3ccccc3)c3ccc(N4CCC5(CC4)CN(c4ccc6c(c4)C(=O)N(C4CCC(=O)NC4=O)C6=O)C5)cc3)CC2)nc1 (stereo partly drawn) [4n, 3-Benzyl-1-((1r,4r)-4-((5-cyanopyridin-2-yl)amino)cyclohexyl)-1-(4-(2-(2-(2,6-dioxopiperidin-3-yl)-1,3-dioxoisoindolin-5-yl)-2,7-diazaspiro[3.5]nonan-7-yl)phenyl)urea] | 
4 | 47 | 47 | 27 | 27 |  |  |  | N#Cc1ccc(N[C@H]2CC[C@H](N(C(=O)NCc3ccccc3)c3ccc(N4CCC5(CC4)CCN(c4ccc6c(c4)C(=O)N(C4CCC(=O)NC4=O)C6=O)C5)cc3)CC2)nc1 (stereo partly drawn) [4o, 3-Benzyl-1-((1r,4r)-4-((5-cyanopyridin-2-yl)amino)cyclohexyl)-1-(4-(2-(2-(2,6-dioxopiperidin-3-yl)-1,3-dioxoisoindolin-5-yl)-2,8-diazaspiro[4.5]decan-8-yl)phenyl)urea] | 
5 | 66 | 66 | 42 | 42 |  |  |  | N#Cc1ccc(N[C@H]2CC[C@H](N(C(=O)NCc3ccccc3)c3ccc(N4CCC5(CC4)CCN(c4ccc6c(c4)C(=O)N(C4CCC(=O)NC4=O)C6=O)CC5)cc3)CC2)nc1 (stereo partly drawn) [4p, 3-Benzyl-1-((1r,4r)-4-((5-cyanopyridin-2-yl)amino)cyclohexyl)-1-(4-(9-(2-(2,6-dioxopiperidin-3-yl)-1,3-dioxoisoindolin-5-yl)-3,9-diazaspiro[5.5]undecan-3-yl)phenyl)urea] | 
6 |  |  |  |  |  |  |  | CC(C)C[C@@H](C=O)NC(=O)[C@H](CC(C)C)NC(=O)[C@H](CC(C)C)NC(=O)OCc1ccccc1 [MG132] (Cbz-Leu-Leu-Leu-aldehyde) | significantly blocked
7 |  |  |  |  |  |  |  | NS(=O)(=O)OC[C@@H]1C[C@@H](n2ccc3c(N[C@H]4CCc5ccccc54)ncnc32)C[C@@H]1O [MLN4924] | significantly blocked
8 |  |  |  |  |  |  |  | N#Cc1ccc(N[C@H]2CC[C@H](N(C(=O)NCc3ccccc3)c3ccc(N4CCNCC4)cc3)CC2)nc1 [compound 5, 3-Benzyl-1-((1r,4r)-4-((5-cyanopyridin-2-yl)amino)cyclohexyl)-1-(4-(piperazin-1-yl)phenyl)urea] | reversed
9 |  |  |  |  |  |  |  | Nc1cccc2c1C(=O)N(C1CCC(=O)NC1=O)C2=O (stereo not drawn) [pomalidomide] | reversed
